# From patent publication US8822517B2, “Arylosulfonamides for the treatment of CNS diseases” (Adamed SP. Z O.O., priority 2010, dated 2014)
# Experiments:
# adrenergic α2C receptor = biological target: T1, adrenergic α2C receptor (Homo sapiens, UniProt P18825); assay: Binding assay α2C (h), [3H]RX 821002, CHO cells; design: expressed in transfected cells; host or cells: CHO cells; conditions: read-out: α2C [%]
# T1 sequence (P18825 1-462): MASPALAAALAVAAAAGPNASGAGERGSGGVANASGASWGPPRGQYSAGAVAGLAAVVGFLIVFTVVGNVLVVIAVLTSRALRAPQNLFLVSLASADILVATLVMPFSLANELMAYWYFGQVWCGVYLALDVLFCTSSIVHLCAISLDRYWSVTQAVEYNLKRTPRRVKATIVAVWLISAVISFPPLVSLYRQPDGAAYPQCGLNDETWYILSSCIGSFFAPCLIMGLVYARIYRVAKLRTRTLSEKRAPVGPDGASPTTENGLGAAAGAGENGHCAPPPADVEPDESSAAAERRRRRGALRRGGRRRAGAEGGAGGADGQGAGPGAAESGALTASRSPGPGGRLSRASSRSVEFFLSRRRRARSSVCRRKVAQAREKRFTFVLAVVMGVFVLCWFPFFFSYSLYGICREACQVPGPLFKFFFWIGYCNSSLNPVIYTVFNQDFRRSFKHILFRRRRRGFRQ
# Method: (§1) The specific ligand binding to the receptors is defined as the difference between the total binding and the nonspecific binding determined in the presence of an excess of so unlabelled ligand.
# (§2) The specific Ligand binding to the receptor is defined as the difference between total and non-specific binding determined in the presence of an excess of unlabelled ligand. The compounds were tested at a concentration of 1×10^−6 M, and scintillation counting was the method of detection of ligand binding.
# sigma σ receptor = assay: Binding assay σ (non-selective), [3H]DTG, rat cerebral cortex; conditions: percent inhibition of control specific binding; compounds tested at 1×10^−6 M
# Method: as §1, §2
# [1] = biological target: T2, serotoninergic receptor 5-HT2C (Homo sapiens, UniProt P28335); assay: Binding assay 5-HT2C (h), [3H]mesulergine, HEK-293 cells; conditions: read-out: 5-HT2C [%]
# T2 construct: expressed in transfected cells; host or cells: HEK-293 cells
# T2 sequence (P28335 33-458): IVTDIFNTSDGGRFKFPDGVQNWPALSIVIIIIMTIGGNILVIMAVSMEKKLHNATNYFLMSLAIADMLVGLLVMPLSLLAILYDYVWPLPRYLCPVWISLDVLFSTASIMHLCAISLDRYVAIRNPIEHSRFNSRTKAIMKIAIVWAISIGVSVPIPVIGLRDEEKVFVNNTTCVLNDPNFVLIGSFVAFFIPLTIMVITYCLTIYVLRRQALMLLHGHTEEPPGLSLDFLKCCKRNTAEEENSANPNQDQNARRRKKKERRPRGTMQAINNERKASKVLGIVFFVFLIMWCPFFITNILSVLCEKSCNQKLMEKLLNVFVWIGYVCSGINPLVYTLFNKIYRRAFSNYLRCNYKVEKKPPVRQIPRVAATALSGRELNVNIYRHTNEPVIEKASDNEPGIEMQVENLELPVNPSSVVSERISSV
# Method: as §1, §2
# [2] = biological target: serotoninergic 5-HT6 receptor (Homo sapiens, UniProt P50406); assay: Binding assay 5-HT6 (h), [3H]LSD, CHO cells; design: expressed in transfected cells; host or cells: CHO cells; conditions: read-out: 5-HT6
# Sequence of serotoninergic 5-HT6 receptor (P50406 whole entry): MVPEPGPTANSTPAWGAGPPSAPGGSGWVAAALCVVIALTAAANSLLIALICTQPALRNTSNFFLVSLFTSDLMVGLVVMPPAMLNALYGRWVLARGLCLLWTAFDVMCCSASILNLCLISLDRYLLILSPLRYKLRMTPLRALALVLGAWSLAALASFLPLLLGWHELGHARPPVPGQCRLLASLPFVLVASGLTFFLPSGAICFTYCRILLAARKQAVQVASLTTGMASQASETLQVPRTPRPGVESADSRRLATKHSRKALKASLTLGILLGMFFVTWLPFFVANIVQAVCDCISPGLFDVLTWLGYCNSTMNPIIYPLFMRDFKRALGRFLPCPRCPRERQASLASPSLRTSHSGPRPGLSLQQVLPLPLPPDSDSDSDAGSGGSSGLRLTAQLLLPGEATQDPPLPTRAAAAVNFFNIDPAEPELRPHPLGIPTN
# How it was run: (§3)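 Tested at 1×10^−6 M. Specific binding: total minus binding remaining with excess cold ligand. Detection: scintillation counting.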
# muscarinic M3 receptor = biological target: T3, muscarinic M3 receptor (Homo sapiens, UniProt P20309); assay: Binding assay M3 (h), [3H]4-DAMP, CHO cells; conditions: read-out: M3 [%]
# T3 construct: expressed in transfected cells; host or cells: CHO cells
# T3 sequence (P20309 whole entry): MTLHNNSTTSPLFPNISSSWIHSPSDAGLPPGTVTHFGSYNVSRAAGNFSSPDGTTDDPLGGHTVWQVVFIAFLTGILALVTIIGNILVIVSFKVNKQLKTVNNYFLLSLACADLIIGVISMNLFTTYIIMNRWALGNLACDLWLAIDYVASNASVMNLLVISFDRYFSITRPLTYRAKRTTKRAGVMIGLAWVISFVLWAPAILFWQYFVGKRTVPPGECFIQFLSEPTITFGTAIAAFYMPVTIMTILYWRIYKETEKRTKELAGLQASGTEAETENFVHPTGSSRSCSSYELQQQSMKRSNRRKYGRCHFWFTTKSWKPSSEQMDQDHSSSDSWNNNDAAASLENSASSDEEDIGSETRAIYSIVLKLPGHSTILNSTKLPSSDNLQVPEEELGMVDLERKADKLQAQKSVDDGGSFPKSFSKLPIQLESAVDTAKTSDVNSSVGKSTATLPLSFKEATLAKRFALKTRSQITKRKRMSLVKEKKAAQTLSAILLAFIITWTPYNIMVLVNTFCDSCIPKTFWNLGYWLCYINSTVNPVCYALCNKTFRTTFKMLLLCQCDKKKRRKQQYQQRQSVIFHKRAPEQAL
# Method: as §1, §2
# [3] = biological target: T4, serotoninergic 5-HT1A receptor (Homo sapiens, UniProt P08908); assay: Binding assay 5-HT1A (h), [3H]8-OH-DPAT, HEK-293 cells; design: expressed in transfected cells; host or cells: HEK-293 cells; conditions: read-out: 5-HT1A
# T4 sequence (P08908 1-422): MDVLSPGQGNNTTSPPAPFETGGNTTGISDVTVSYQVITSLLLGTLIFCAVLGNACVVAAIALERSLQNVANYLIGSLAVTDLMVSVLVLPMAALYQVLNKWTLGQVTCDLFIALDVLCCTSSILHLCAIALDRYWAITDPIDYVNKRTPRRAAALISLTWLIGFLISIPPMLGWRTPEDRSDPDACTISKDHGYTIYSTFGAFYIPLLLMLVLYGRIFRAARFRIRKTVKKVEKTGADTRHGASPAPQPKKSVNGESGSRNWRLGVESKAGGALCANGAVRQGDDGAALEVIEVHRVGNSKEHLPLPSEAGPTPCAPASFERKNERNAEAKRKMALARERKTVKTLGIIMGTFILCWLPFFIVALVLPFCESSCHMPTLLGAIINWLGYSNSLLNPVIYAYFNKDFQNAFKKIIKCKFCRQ
# How it was run: as §3
# [4] = biological target: serotoninergic 5-HT7 receptor (Homo sapiens, UniProt P34969); assay: Binding assay 5-HT7 (h), [3H]LSD, CHO cells; design: expressed in transfected cells; host or cells: CHO cells; conditions: read-out: 5-HT7
# Sequence of serotoninergic 5-HT7 receptor (P34969 whole entry): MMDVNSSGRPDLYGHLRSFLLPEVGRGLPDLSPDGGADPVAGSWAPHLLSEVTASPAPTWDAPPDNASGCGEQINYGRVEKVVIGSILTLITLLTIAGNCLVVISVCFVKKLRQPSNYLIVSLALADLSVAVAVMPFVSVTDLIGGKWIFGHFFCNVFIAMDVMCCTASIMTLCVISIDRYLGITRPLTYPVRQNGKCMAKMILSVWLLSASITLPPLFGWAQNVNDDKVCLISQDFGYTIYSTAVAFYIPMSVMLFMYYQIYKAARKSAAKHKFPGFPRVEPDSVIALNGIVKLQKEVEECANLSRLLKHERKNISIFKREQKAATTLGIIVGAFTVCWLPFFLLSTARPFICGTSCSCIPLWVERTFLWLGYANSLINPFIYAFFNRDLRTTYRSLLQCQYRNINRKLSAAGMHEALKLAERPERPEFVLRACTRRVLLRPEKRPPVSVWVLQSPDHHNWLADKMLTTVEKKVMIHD
# How it was run: as §3
# adrenergic α1 receptor = assay: Binding assay α1 (non-selective), [3H]prazosin, rat cerebral cortex; conditions: percent inhibition of control specific binding; compounds tested at 1×10^−6 M
# How it was run: as §3
# dopaminergic D2 receptor = dopaminergic D2 receptor (Homo sapiens, UniProt P14416); assay: Binding assay D2S (h), [3H]methyl-spiperone, HEK-293 cells; design: expressed in transfected cells; host or cells: HEK-293 cells; conditions: read-out: D2 [%]
# Sequence of dopaminergic D2 receptor (P14416 1-414 isoform P14416-2): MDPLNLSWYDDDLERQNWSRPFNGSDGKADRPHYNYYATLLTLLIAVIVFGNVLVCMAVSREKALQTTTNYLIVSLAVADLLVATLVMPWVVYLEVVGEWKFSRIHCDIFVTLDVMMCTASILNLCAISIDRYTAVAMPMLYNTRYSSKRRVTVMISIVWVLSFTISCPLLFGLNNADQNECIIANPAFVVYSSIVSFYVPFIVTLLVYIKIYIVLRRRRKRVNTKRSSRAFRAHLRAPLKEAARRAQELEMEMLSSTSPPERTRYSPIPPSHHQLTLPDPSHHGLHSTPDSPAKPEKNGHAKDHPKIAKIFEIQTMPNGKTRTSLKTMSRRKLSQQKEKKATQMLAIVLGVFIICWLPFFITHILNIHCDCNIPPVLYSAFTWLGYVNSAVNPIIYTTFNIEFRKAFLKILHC
# How it was run: as §3
# [5] = biological target: T5, serotonine transporter (SERT) receptor (Homo sapiens, UniProt P31645); assay: Binding assay SERT (h), [3H]imipramine, CHO cells; conditions: read-out: SERT [%]
# T5 construct: expressed in transfected cells; host or cells: CHO cells
# T5 sequence (P31645 whole entry): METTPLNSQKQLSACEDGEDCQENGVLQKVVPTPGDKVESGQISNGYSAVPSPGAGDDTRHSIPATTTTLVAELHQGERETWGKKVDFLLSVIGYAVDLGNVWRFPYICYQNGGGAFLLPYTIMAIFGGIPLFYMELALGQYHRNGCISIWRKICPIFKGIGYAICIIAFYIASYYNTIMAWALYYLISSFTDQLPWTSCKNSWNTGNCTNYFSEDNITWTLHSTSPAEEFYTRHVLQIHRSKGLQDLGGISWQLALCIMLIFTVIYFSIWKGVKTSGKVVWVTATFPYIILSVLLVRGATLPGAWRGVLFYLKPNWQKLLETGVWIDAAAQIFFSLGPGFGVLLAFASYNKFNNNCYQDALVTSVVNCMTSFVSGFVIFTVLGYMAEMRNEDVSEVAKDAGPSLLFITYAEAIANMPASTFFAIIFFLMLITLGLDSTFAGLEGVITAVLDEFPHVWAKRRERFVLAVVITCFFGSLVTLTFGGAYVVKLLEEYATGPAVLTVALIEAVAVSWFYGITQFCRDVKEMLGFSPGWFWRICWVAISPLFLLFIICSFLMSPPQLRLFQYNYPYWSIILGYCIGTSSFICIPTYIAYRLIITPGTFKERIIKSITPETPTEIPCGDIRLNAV
# How it was run: as §3
# [6] = biological target: serotoninergic 5-HT2A receptor (Homo sapiens, UniProt P28223); assay: Binding assay 5-HT2A (h), [3H]ketanserin, HEK-293 cells; design: expressed in transfected cells; host or cells: HEK-293 cells; conditions: read-out: 5-HT2A
# Sequence of serotoninergic 5-HT2A receptor (P28223 whole entry): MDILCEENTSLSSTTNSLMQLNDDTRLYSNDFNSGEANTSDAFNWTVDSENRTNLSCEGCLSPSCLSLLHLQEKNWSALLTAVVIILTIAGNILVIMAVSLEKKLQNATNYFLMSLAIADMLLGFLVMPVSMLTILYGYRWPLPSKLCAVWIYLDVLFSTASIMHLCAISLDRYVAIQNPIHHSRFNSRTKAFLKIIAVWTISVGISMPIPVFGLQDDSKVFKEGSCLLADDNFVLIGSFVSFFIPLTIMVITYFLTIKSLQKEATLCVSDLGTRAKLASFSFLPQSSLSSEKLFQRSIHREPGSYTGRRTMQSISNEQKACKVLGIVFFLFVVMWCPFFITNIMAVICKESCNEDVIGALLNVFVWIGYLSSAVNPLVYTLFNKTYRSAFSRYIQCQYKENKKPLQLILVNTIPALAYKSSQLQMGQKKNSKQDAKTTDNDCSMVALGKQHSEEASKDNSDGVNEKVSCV
# How it was run: as §3
# dopaminergic D3 receptor = dopaminergic D3 receptor (Homo sapiens, UniProt P35462); assay: Binding assay D3 (h), [3H]methyl-spiperone, CHO cells; design: expressed in transfected cells; host or cells: CHO cells; conditions: read-out: D3 [%]
# Sequence of dopaminergic D3 receptor (P35462 whole entry): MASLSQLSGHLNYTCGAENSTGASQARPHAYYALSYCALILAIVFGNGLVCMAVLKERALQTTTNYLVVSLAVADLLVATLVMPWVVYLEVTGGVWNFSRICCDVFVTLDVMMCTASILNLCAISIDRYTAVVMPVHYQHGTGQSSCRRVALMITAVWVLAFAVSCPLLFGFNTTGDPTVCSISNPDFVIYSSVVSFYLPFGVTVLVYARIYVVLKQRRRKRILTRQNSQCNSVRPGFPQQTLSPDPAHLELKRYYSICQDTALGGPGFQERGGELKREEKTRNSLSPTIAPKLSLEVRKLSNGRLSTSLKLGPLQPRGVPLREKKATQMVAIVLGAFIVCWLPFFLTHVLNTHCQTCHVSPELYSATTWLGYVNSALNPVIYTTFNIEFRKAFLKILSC
# How it was run: as §3
# [7] = biological target: histaminergic H1 receptor (Homo sapiens, UniProt P35367); assay: Binding assay H1 (h), [3H]pyrilamine, HEK-293 cells; design: expressed in transfected cells; host or cells: HEK-293 cells; conditions: read-out: H1 [%]
# Sequence of histaminergic H1 receptor (P35367 whole entry): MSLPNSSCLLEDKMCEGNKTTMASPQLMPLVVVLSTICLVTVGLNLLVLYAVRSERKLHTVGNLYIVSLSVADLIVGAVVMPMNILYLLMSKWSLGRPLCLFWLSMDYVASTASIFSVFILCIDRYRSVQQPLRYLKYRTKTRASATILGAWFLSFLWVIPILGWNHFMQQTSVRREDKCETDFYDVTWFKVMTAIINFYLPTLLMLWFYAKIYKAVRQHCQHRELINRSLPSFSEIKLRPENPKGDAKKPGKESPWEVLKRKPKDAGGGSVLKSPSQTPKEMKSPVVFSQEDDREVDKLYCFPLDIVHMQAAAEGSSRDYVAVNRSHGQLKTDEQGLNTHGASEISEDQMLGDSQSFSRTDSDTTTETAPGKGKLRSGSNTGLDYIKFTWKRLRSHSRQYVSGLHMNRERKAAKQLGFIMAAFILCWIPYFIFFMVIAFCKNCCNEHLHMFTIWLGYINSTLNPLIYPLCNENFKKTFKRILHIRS
# Method: as §1, §2
structure (smiles),measurement,setting,value
"O=S(=O)(NCCCN1CCN(c2nsc3ccccc23)CC1)c1ccc(F)cc1 [Compound 248, N-[3-[4-(1,2-Benzothiazol-3-yl)piperazin-1-yl]propyl]-4-fluorobenzenesulphonamide]",inhibition at 1 µM,adrenergic α2C receptor,93%
same,σ [%],sigma σ receptor,64%
same,inhibition at 1 µM,[1],84%
same,inhibition at 1 µM,[2],98%
same,inhibition at 1 µM,muscarinic M3 receptor,13%
same,inhibition at 1 µM,[3],97%
same,inhibition at 1 µM,[4],98%
same,α1 [%],adrenergic α1 receptor,91%
same,inhibition at 1 µM,dopaminergic D2 receptor,99%
same,inhibition at 1 µM,[5],80%
same,inhibition at 1 µM,[6],101%
same,inhibition at 1 µM,dopaminergic D3 receptor,100%
same,inhibition at 1 µM,[7],97%
"O=S(=O)(NCCCN1CCN(c2nsc3ccccc23)CC1)c1ccc(F)c(F)c1 [Compound 249, N-[3-[4-(1,2-Benzothiazol-3-yl)piperazin-1-yl]propyl]-3,4-difluorobenzenesulphonamide]",inhibition at 1 µM,adrenergic α2C receptor,98%
same,σ [%],sigma σ receptor,68%
same,inhibition at 1 µM,[1],89%
same,inhibition at 1 µM,[2],101%
same,inhibition at 1 µM,muscarinic M3 receptor,9%
same,inhibition at 1 µM,[3],100%
same,inhibition at 1 µM,[4],100%
same,α1 [%],adrenergic α1 receptor,99%
same,inhibition at 1 µM,dopaminergic D2 receptor,98%
same,inhibition at 1 µM,[5],77%
same,inhibition at 1 µM,[6],101%
same,inhibition at 1 µM,dopaminergic D3 receptor,100%
same,inhibition at 1 µM,[7],97%
"O=S(=O)(NCCCN1CCN(c2nsc3ccccc23)CC1)c1ccc(Br)cc1 [Compound 252, N-[3-[4-(1,2-Benzothiazol-3-yl)piperazin-1-yl]propyl]-4-bromobenzenesulphonamide]",inhibition at 1 µM,adrenergic α2C receptor,95%
same,σ [%],sigma σ receptor,59%
same,inhibition at 1 µM,[1],84%
same,inhibition at 1 µM,[2],93%
same,inhibition at 1 µM,muscarinic M3 receptor,16%
same,inhibition at 1 µM,[3],99%
same,inhibition at 1 µM,[4],99%
same,α1 [%],adrenergic α1 receptor,27%
same,inhibition at 1 µM,dopaminergic D2 receptor,97%
same,inhibition at 1 µM,[5],94%
same,inhibition at 1 µM,[6],101%
same,inhibition at 1 µM,dopaminergic D3 receptor,98%
same,inhibition at 1 µM,[7],-77%
"O=S(=O)(NCCCN1CCN(c2nsc3ccccc23)CC1)c1cccc(Br)c1 [Compound 253, N-[3-[4-(1,2-Benzothiazol-3-yl)piperazin-1-yl]propyl]-3-bromobenzenesulphonamide]",inhibition at 1 µM,adrenergic α2C receptor,102%
same,σ [%],sigma σ receptor,64%
same,inhibition at 1 µM,[1],89%
same,inhibition at 1 µM,[2],101%
same,inhibition at 1 µM,muscarinic M3 receptor,24%
same,inhibition at 1 µM,[3],99%
same,inhibition at 1 µM,[4],99%
same,α1 [%],adrenergic α1 receptor,97%
same,inhibition at 1 µM,dopaminergic D2 receptor,99%
same,inhibition at 1 µM,[5],79%
same,inhibition at 1 µM,[6],101%
same,inhibition at 1 µM,dopaminergic D3 receptor,99%
same,inhibition at 1 µM,[7],98%
"CC(C)(C)c1ccc(S(=O)(=O)NCCCN2CCN(c3nsc4ccccc34)CC2)cc1 [Compound 256, N-[3-[4-(1,2-Benzothiazol-3-yl)piperazin-1-yl]propyl]-4-tert-butylbenzenesulphonamide]",inhibition at 1 µM,adrenergic α2C receptor,92%
same,σ [%],sigma σ receptor,41%
same,inhibition at 1 µM,[1],94%
same,inhibition at 1 µM,[2],95%
same,inhibition at 1 µM,muscarinic M3 receptor,15%
same,inhibition at 1 µM,[3],96%
same,inhibition at 1 µM,[4],100%
same,α1 [%],adrenergic α1 receptor,87%
same,inhibition at 1 µM,dopaminergic D2 receptor,97%
same,inhibition at 1 µM,[5],93%
same,inhibition at 1 µM,[6],102%
same,inhibition at 1 µM,dopaminergic D3 receptor,96%
same,inhibition at 1 µM,[7],94%
"O=S(=O)(NCCCN1CCN(c2nsc3ccccc23)CC1)c1ccc(C(F)(F)F)cc1 [Compound 257, N-[3-[4-(1,2-Benzothiazol-3-yl)piperazin-1-yl]propyl]-4-(trifluoromethyl)benzenesulphonamide]",inhibition at 1 µM,adrenergic α2C receptor,99%
same,σ [%],sigma σ receptor,57%
same,inhibition at 1 µM,[1],83%
same,inhibition at 1 µM,[2],94%
same,inhibition at 1 µM,muscarinic M3 receptor,12%
same,inhibition at 1 µM,[3],99%
same,inhibition at 1 µM,[4],101%
same,α1 [%],adrenergic α1 receptor,94%
same,inhibition at 1 µM,dopaminergic D2 receptor,99%
same,inhibition at 1 µM,[5],93%
same,inhibition at 1 µM,[6],101%
same,inhibition at 1 µM,dopaminergic D3 receptor,100%
same,inhibition at 1 µM,[7],91%
"O=S(=O)(NCCCN1CCN(c2nsc3ccccc23)CC1)c1cccc(C(F)(F)F)c1 [Compound 258, N-[3-[4-(1,2-Benzothiazol-3-yl)piperazin-1-yl]propyl]-3-(trifluoromethyl)benzenesulphonamide]",inhibition at 1 µM,adrenergic α2C receptor,98%
same,σ [%],sigma σ receptor,61%
same,inhibition at 1 µM,[1],86%
same,inhibition at 1 µM,[2],98%
same,inhibition at 1 µM,muscarinic M3 receptor,15%
same,inhibition at 1 µM,[3],100%
same,inhibition at 1 µM,[4],100%
same,α1 [%],adrenergic α1 receptor,97%
same,inhibition at 1 µM,dopaminergic D2 receptor,95%
same,inhibition at 1 µM,[5],80%
same,inhibition at 1 µM,[6],101%
same,inhibition at 1 µM,dopaminergic D3 receptor,97%
same,inhibition at 1 µM,[7],97%
"O=S(=O)(NCCCN1CCN(c2nsc3ccccc23)CC1)c1ccc(-c2ccccc2)cc1 [Compound 260, N-[3-[4-(1,2-Benzothiazol-3-yl)piperazin-1-yl]propyl]-4-phenylbenzenesulphonamide]",inhibition at 1 µM,adrenergic α2C receptor,99%
same,σ [%],sigma σ receptor,41%
same,inhibition at 1 µM,[1],90%
same,inhibition at 1 µM,[2],92%
same,inhibition at 1 µM,muscarinic M3 receptor,11%
same,inhibition at 1 µM,[3],96%
same,inhibition at 1 µM,[4],100%
same,α1 [%],adrenergic α1 receptor,91%
same,inhibition at 1 µM,dopaminergic D2 receptor,99%
same,inhibition at 1 µM,[5],90%
same,inhibition at 1 µM,[6],102%
same,inhibition at 1 µM,dopaminergic D3 receptor,98%
same,inhibition at 1 µM,[7],95%
"O=S(=O)(NCCCN1CCN(c2nsc3ccccc23)CC1)c1cccs1 [Compound 261, N-[3-[4-(1,2-Benzothiazol-3-yl)piperazin-1-yl]propyl]thiophene-2-sulphonamide]",inhibition at 1 µM,adrenergic α2C receptor,92%
same,σ [%],sigma σ receptor,57%
same,inhibition at 1 µM,[1],87%
same,inhibition at 1 µM,[2],83%
same,inhibition at 1 µM,muscarinic M3 receptor,15%
same,inhibition at 1 µM,[3],98%
same,inhibition at 1 µM,[4],100%
same,α1 [%],adrenergic α1 receptor,−90%
same,inhibition at 1 µM,dopaminergic D2 receptor,97%
same,inhibition at 1 µM,[5],60%
same,inhibition at 1 µM,[6],102%
same,inhibition at 1 µM,dopaminergic D3 receptor,98%
same,inhibition at 1 µM,[7],92%
